Data on three compounds can be found in US20260083126A1, “ANTIMICROBIAL COMPOSITIONS” (AHV International B.V., priority 2022, published 2026).

Where only a bound is given, the exact number is not on record here.

In assay [1] the test system is Pseudomonas aeruginosa ATCC 27853. The experiment in a line: MIC assay (growth inhibition of planktonic microorganisms). Format: cell-based. The settings on record: 24 h at 37° C., MHB-II. The protocol:
(§1) The exact weighed amount was noted and the volume of solvent to reach a 80 mM dilution calculated. Half of the volume was added first, by adding Tween 80 and let stand for 5 minutes. In a second step, the other half of the volume DMSO was added and resuspended to help the dilution process. The closed tube was inverted 5-10 times and then vortexed very thoroughly for at least 30 seconds. If after this procedure crystals were still visible, the tube was placed in a shaker at 37° C. at 150 rpm for at least 30 minutes (it is indicated if the dissolution period was longer than 2 h). […] In case of Bis(4-Chlorophenyl) thiosulfonate, a lower concentrated stock solution of 2 mM needed to be prepared. For that, the required amount of compound was weighed in and 2% v/v Tween80 and 2% v/v DMSO of the end volume of the stock solution was added to the substance. This mix was heated in a water bath set to 40° C. and occasionally shaken. When the whole amount of the substance reached dissolution, the volume was filled up with growth medium until the end volume. This 2 mM stock solution of Bis(4-Chlorophenyl) thiosulfonate was used in the MIC plate and diluted two-fold, resulting in a testing range of Bis(4-Chlorophenyl) thiosulfonate from 1 mM to 0.002 mM.
(§2) The microorganisms as indicated in Table 4 were used to inoculate a tryptic soy agar (TSA) plate and incubated overnight at 37° C. After incubation 3-5 well-isolated colonies with the same morphology were selected from the TSA plate and resuspended in 2 mL 0.9% saline solution with 3-6 glass beads and vortexed. The optical density at 600 nm (OD600) of the bacterial suspension was measured with a spectrophotometer (Evolution™ 201/220 UV-Visible Spectrophotometer, Thermo Fisher Scientific) and diluted to an OD600 of 0.0008, which resembles 10^6 CFU/mL.
(§3) The MIC assay was performed in a flat-bottom 96-microtiter plate. 50 μL of MHB-II was added into columns 2-11, and 100 μL to column 12 for sterility control. 100 μL of the 8 mM test compound solution (method 1) was added to column 1. A two-fold dilution series of the solution in MHB-II was achieved by resuspending 50 μL of the 8 mM solution from column 1 to column 2. This step was repeated until column 10. The respective concentration of Tween 80 and DMSO in column 1 was 2.5%, which is two-fold diluted throughout the plate. 50 μL of the bacterial suspension was added to column 1-11. The microtiter plates were sealed with adhesive polyethylene film for sealing microplates (Diversified Biotech) and incubated for 24 h at 37° C. After incubation the OD was measured at 600 nm with the Varioskan (Thermo Fisher Scientific). The minimal concentration which causes reduction of final OD600 of the bacterial culture by 50% (MIC50) and by 90% (MIC90) was calculated after normalization of the obtained OD values to the growth control in column 11. This assay was repeated three times in three independent experiments.
Hereafter, the stock solutions of the compounds were used in three repetitions in a minimal inhibitory concentration (MIC) assay at a 2-fold dilution range with various bacteria from the gram-positive and gram-negative group and a yeast, Candida albicans. The concentrations that show only less than 10% growth after 24 h were considered the MIC90-values, whereas the concentrations that show 50% growth after 24 h when compared to the bacterial growth control were considered the MIC50-values. Escherichia coli and Staphylococcus aureus were used as representatives for a gram-negative bacteria and gram-positive bacteria, respectively. Furthermore, the yeast C. albicans was also tested.
In an Eppendorf tube between 10-20 mg of the test compound was weighed. Hereafter, the required amount of Tween 80 was added, followed by the amount DMSO. After vigorous shaking, the dissolved and transparent dilutions were diluted 10 times with Mueller Hinton Broth (MHB) for the MIC assay. […]

In assay [2] the test system is Pseudomonas aeruginosa ATCC 27853 biofilm. The experiment in a line: MBEC assay (48 h biofilm, CFU log reduction). Format: cell-based. The settings on record: 20 h treatment, 0.125-1 mM tested. On the procedure: (§4) For the MBEC assay (method 1.3) the solutions need to be diluted to a final concentration of 2 mM in 0.9% saline solution and then further diluted to 1 mM, 0.5 mM, 0.25 mM and 0.125 mM in saline. Those dilutions were added as treatment to the 96 well plates with the grown biofilm (see method 3) (0.5 mL needed for one strain). The dilution must stay transparent.
(§5) Frozen aliquots of Staphylococcus epidermis ATCC 35984 and Pseudomonas aeruginosa ATCC 27853 were used to inoculate 20 mL of Tryptic Soy Broth (TSB) in a 100 mL Erlenmeyer flask at 37° C. and 150 rpm and incubated overnight (Infors). The OD600 of the overnight culture was measured with a spectrophotometer (Evolution™ 201/220 UV-Visible Spectrophotometer, Thermo Fisher Scientific) and diluted to an ( ) 600 of 0.2, which resembles 10^8 CFU/mL. The cell suspension of OD600=0.2 was seeded into a U-bottom-shaped 96 well plates by pipetting 100 μL per well in column 1-11, column 12 was filled with 100 μL medium as sterility control. The 96 well plates were sealed with adhesive polyethylene film for sealing microplates and incubated for 48 h at 37° C. at static conditions. After the biofilm growth phase, 100 μL of treatment solutions (method 1) were added to the vials resulting in treatment concentrations of 1 mM, 0.5 mM, 0.25 mM and 0.125 mM and with the respective concentration of Tween 80 and DMSO each at 0.63%, 0.32%, 0.16% and 0.08%. The same concentration was applied to four different wells of the same bacterial strain, resulting in four replicates for each concentration and strain. The treatment was incubated for 20 h at 37° C. at static conditions. After the treatment the supernatant was carefully removed and the well with the biofilm washed carefully for one time with 200 μL 0.9% saline solution. 200 μL saline solution was added and the biofilm was resuspended thoroughly. When fully homogenized then 20 μl, was used for the first dilution in 180 μL 0.9% saline solution, which was prepared in a second plate. This dilution was continued until dilution step 10E-5 and 100 μL of the 10E-4 and 10E-5 dilution plated on a TSA plate. The TSA plates were incubated at 37° C. for 24 h. The colonies on the plates were enumerated, the colony forming units per ml, of the dispensed biofilm and averages thereof and the log reduction in comparison with the untreated sample from the same wells plate calculated. Reduction of colony forming units goes hand in hand with the thickness of the biofilm and thus with the number bacteria that are present in the biofilm. Therefore, a significant reduction of colony forming units in the biofilm was defined at the value of log reduction >1 or more. This assay was repeated two times in two independent experiments)

In assay [3] the test system is Staphylococcus epidermis ATCC 35984 biofilm. The experiment in a line: MBEC assay (48 h biofilm, CFU log reduction). The settings on record: 20 h treatment, 0.125-1 mM tested. It is filed as cell-based, Staphylococcus epidermidis. On the procedure: as §4, §5
The subject of assay [4] is Staphylococcus epidermidis ATCC 35984. The experiment in a line: MIC assay (growth inhibition of planktonic microorganisms). It is filed as cell-based. The settings on record: 24 h at 37° C., MHB-II. The protocol:
as §1, §2, §3

The subject of assay [5] is Staphylococcus aureus LUH14616. The experiment in a line: Resistance development on repeated exposure (19 passages). It is filed as cell-based. The protocol:
Experimental design. Potential resistance to AM-8 was assessed as described by Habets and Brockhurst (2012) (Therapeutic antimicrobial peptides may compromise natural immunity. Biol Lett 8:416-418). Briefly, log phase bacteria (S. aureus LUH 14616) were diluted in RPMI-mod to a concentration of 2×10^6 CFU/ml. Next, 50 μl of this bacterial suspension were mixed with 50 μl of a range of dilutions of AM-8 or—as comparator-rifampicin in v-bottom 96-wells plates. Thereafter, the plates were covered with a plastic seal and incubated for 24 hrs at 37° C. in a shaking incubator (200 rpm). The plates were then centrifuged for 5 min at 2,000 rpm and the growth inhibition was determined. To start the resistance development testing, 100 μl of a mid-log bacterial suspension containing 2×10^6 CFU/ml were mixed with 150 μl of RPMI-mod and 5 μl of this diluted bacterial suspension were applied to v-bottom wells containing a dilution range of AM-8 or antibiotics (various concentrations below and above MIC) in RPMI-mod (RPMI 1640 modified with 20 mM Hepes and L-glutamine and without sodium bicarbonate (Sigma-Aldrich); further referred to as RPMI-mod). After 24 hrs at 37° C. in a shaking incubator (200 rpm) the growth inhibition was determined. 100 μl of the bacterial suspension from the 0.5×MIC wells were mixed with 150 μl of RPMI-mod and 5 μl of the diluted bacterial suspension were used to inoculate a new 96-wells plate containing a dilution series of AM-8 or rifampicin, and these mixtures were then incubated as described above. If resistance developed, the concentration range of AM-8 and/or antibiotic was adjusted accordingly. This was repeated 19 times. Results are expressed as the fold-increase in MIC compared to the MIC at the start of the experiment.

Setting [6] is: reduction of final OD600 by 50%.
Setting [7] is: reduction of final OD600 by 90%.

In the case of `[O-][S+](Sc1ccc(Cl)cc1)c1ccc(Cl)cc1` (stereo not drawn) [Bis (4-chlorophenyl) thiosulfinate, Bis(4-chlorophenyl) thiosulfinate], in assay [1] (setting [6]), the “P. aeruginosa MIC50” value was found to be 20 µM. The “P. aeruginosa MIC90” value in assay [1] (setting [7]) came to 20 µM. Besides, the “P. aeruginosa MBEC mM with log reduction ≥1” value in assay [2] is above 1 mM. For the same compound, the “S. epidermidis MBEC mM with log reduction ≥1” value in assay [3] was above 1 mM. Also, the “S. epidermidis MIC50” value in assay [4] (setting [6]) is 20 µM. The “S. epidermidis MIC90” value in assay [4] (setting [7]) stood at 20 µM.
Turning to `CC(C)SSC(C)C` [Di-isopropyl disulfide, reference compound], the MIC50 in assay [1] (Pseudomonas aeruginosa, ATCC27853, 24 h, reduction of final OD600 by 50%, read-out: P. aeruginosa MIC50) is above 4000 µM; in assay [4] (Staphylococcus epidermidis, ATCC35984, reduction of final OD600 by 50%, read-out: S. epidermidis MIC50), above 4000 µM. Further, the MIC90 in assay [1] (Pseudomonas aeruginosa, ATCC27853, reduction of final OD600 by 90%, read-out: P. aeruginosa MIC90) is above 4000 µM; in assay [4] (Staphylococcus epidermidis, ATCC35984, reduction of final OD600 by 90%, read-out: S. epidermidis MIC90), above 4000 µM. Besides, the “P. aeruginosa MBEC mM with log reduction ≥1” value in assay [2] was above 1 mM. Moreover, the “S. epidermidis MBEC mM with log reduction ≥1” value in assay [3] is listed as above 1 mM.
For the compound `CO[C@H]1/C=C/O[C@@]2(C)Oc3c(C)c(O)c4c(O)c(c(/C=N/N5CCN(C)CC5)c(O)c4c3C2=O)NC(=O)/C(C)=C\C=C\[C@H](C)[C@H](O)[C@@H](C)[C@@H](O)[C@@H](C)[C@H](OC(C)=O)[C@@H]1C` [rifampicin, reference compound], the entries for the “fold-increase in MIC compared to the MIC at the start” value in assay [5] (after passage 10), in assay [5] (after the last passage) and in assay [5] (at passages 4-5) were 146 fold, above 292 fold and 10 fold, respectively.

What is called MIC50 is an inhibitory concentration at the 50% level, which refers to growth in some studies and to a panel of isolates in others. By MIC90 is commonly meant the lowest concentration that inhibits either 90% of growth or 90% of the strains tested, depending on the study.
